The results in this text go back to BindingDB's records for doi:10.7270/Q22J698B (NMMLSC, 2010).

The target of the assay is Cell division control protein 42 homolog (Homo sapiens, UniProt P60953). The experiment in a line: activated mutant Cdc42 GTP-binding inhibitors, dose response, biochemical, multiplex bead flow cytometry, Bodipy-FL-GTP (AID 1333). (In flow cytometry, cells or beads pass a laser one at a time.)
Sequence of Cell division control protein 42 homolog (P60953 whole entry): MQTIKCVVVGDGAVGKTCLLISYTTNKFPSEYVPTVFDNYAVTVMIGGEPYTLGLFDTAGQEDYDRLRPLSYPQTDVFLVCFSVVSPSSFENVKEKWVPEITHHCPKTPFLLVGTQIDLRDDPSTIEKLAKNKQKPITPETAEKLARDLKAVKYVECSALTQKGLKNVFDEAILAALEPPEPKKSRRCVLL

In general, EC50 refers to the midpoint of the concentration-response curve. In the case of `CC1(C)Cc2c(sc(NC(=S)NC(=O)c3ccccc3)c2C(=O)O)CO1` [2-(benzoylcarbamothioylamino)-5,5-dimethyl-4,7-dihydrothieno[2,3-c]pyran-3-carboxylic acid], the EC50 was found to be 92 nM.
